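How tested: cells in 96-well plates exposed to compound for 48 hours at five concentrations. At the GI50, growth is halved.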 Active and inactive are the calls of the source. No stated cut-off is given here; in the data, active = GI50 up to about 1.1 µM and inactive = higher.
Columns and labels:
Experiment in all cases: DTP human tumour cell line panel, 48 h
Hs-578T = tested on: Hs-578T
IGROV-1 = tested on: IGROV-1
A549 = tested on: A549
ACHN = tested on: ACHN
HOP-62 = tested on: HOP-62
SF-295 = tested on: SF-295
KM12 = tested on: KM12
A498 = tested on: A498
MCF7 = tested on: MCF7
DU-145 = tested on: DU-145
OVCAR-3 = tested on: OVCAR-3
MDA-N = tested on: MDA-N
SK-OV-3 = tested on: SK-OV-3
OVCAR-4 = tested on: OVCAR-4
UO-31 = tested on: UO-31
HCC 2998 = tested on: HCC 2998
M14 = tested on: M14
UACC-62 = tested on: UACC-62
K562 = tested on: K562
NCI-H23 = tested on: NCI-H23
T47D = tested on: T47D
SW-620 = tested on: SW-620
RPMI-8226 = tested on: RPMI-8226
EKVX = tested on: EKVX
OVCAR-5 = tested on: OVCAR-5
PC-3 = tested on: PC-3
TK-10 = tested on: TK-10
HCT-116 = tested on: HCT-116
MDA-MB-435 = tested on: MDA-MB-435
MDA-MB-231 = tested on: MDA-MB-231
UACC-257 = tested on: UACC-257
CAKI-1 = tested on: CAKI-1
SR = tested on: SR
COLO 205 = tested on: COLO 205
LOX IMVI = tested on: LOX IMVI
BT-549 = tested on: BT-549
HOP-92 = tested on: HOP-92
NCI/ADR-RES = tested on: NCI/ADR-RES
SK-MEL-2 = tested on: SK-MEL-2
SN12C = tested on: SN12C
RXF 393 = tested on: RXF 393
SF-539 = tested on: SF-539
OVCAR-8 = tested on: OVCAR-8
Malme-3M = tested on: Malme-3M
NCI-H226 = tested on: NCI-H226
HCT-15 = tested on: HCT-15
SK-MEL-28 = tested on: SK-MEL-28
SK-MEL-5 = tested on: SK-MEL-5
HT-29 = tested on: HT-29

With `CC1OC2=N[C@@H]1C(=O)N[C@@H](Cc1ccccc1)C1=N[C@H](C(=O)N[C@@H](Cc3ccccc3)C3=N[C@H](C(=O)N[C@H]2Cc2ccccc2)C(C)O3)C(C)O1` (some centres undefined) the GI50 (Hs-578T) was 24.3 µM (inactive), the GI50 (IGROV-1) was 29.4 µM (inactive) and the GI50 (A549) was 25.5 µM (inactive). For the same compound, the GI50 (ACHN) was 31.3 µM (inactive), the GI50 (HOP-62) was 48.3 µM (inactive) and the GI50 (SF-295) was 30.7 µM (inactive). The GI50 (KM12) was 61.1 µM (inactive), the GI50 (A498) was 29.9 µM (inactive) and the GI50 (MCF7) was 45.9 µM (inactive). For the same compound, the GI50 (DU-145) was 57.9 µM (inactive), the GI50 (OVCAR-3) was 28.2 µM (inactive) and the GI50 (MDA-N) was 43.2 µM (inactive). For the same compound, the GI50 (SK-OV-3) was 49.7 µM (inactive), the GI50 (OVCAR-4) was 46.2 µM (inactive) and the GI50 (UO-31) was 31.8 µM (inactive). The GI50 (HCC 2998) was 34.5 µM (inactive), the GI50 (M14) was 22.6 µM (inactive) and the GI50 (UACC-62) was 30.8 µM (inactive). For the same compound, the GI50 (K562) was 26.7 µM (inactive), the GI50 (NCI-H23) was 37.2 µM (inactive) and the GI50 (T47D) was 31.1 µM (inactive). For the same compound, the GI50 (SW-620) was 37.2 µM (inactive), the GI50 (RPMI-8226) was 13.5 µM (inactive) and the GI50 (EKVX) was 49.5 µM (inactive). The GI50 (OVCAR-5) was 30.3 µM (inactive), the GI50 (PC-3) was 22.4 µM (inactive) and the GI50 (TK-10) was 26.5 µM (inactive). The GI50 (HCT-116) was 23.3 µM (inactive), the GI50 (MDA-MB-435) was 28 µM (inactive) and the GI50 (MDA-MB-231) was 33 µM (inactive). For the same compound, the GI50 (UACC-257) was 30.4 µM (inactive), the GI50 (CAKI-1) was 40.4 µM (inactive) and the GI50 (SR) was 27.9 µM (inactive). For the same compound, the GI50 (COLO 205) was 18.6 µM (inactive), the GI50 (LOX IMVI) was 17 µM (inactive) and the GI50 (BT-549) was 40 µM (inactive). For the same compound, the GI50 (HOP-92) was 18.9 µM (inactive), the GI50 (NCI/ADR-RES) was 44.6 µM (inactive) and the GI50 (SK-MEL-2) was 25.1 µM (inactive). For the same compound, the GI50 (SN12C) was 36 µM (inactive), the GI50 (RXF 393) was 31.1 µM (inactive) and the GI50 (SF-539) was 24.2 µM (inactive). For the same compound, the GI50 (OVCAR-8) was 26.4 µM (inactive), the GI50 (Malme-3M) was 22.4 µM (inactive) and the GI50 (NCI-H226) was 29.6 µM (inactive). The GI50 (HCT-15) was 30.6 µM, the GI50 (SK-MEL-28) was 26.5 µM (inactive) and the GI50 (SK-MEL-5) was 24.3 µM (inactive). For the same compound, the GI50 (HT-29) was 20 µM (inactive).

From ChEMBL document CHEMBL1201862, “PubChem BioAssay data set” (2004)
